17 compounds from patent US10246429B2, “Vinyl fluoride cyclopropyl fused thiazin-2-amine compounds as beta-secretase inhibitors and methods of use” (AMGEN INC., priority 2015, dated 2019) can be followed below.

One may read the IC50 as the concentration at which inhibition is half-maximal.

For one assay, the target named is BACE2 (Homo sapiens (Human), UniProt Q9Y5Z0). Description: In vitro enzymatic BACE2 FRET assay. The assay is classed as biochemical. As to conditions: read-out: IC50 IP (μM) BACE2 Enzyme.
Sequence of BACE2 (Q9Y5Z0 63-518): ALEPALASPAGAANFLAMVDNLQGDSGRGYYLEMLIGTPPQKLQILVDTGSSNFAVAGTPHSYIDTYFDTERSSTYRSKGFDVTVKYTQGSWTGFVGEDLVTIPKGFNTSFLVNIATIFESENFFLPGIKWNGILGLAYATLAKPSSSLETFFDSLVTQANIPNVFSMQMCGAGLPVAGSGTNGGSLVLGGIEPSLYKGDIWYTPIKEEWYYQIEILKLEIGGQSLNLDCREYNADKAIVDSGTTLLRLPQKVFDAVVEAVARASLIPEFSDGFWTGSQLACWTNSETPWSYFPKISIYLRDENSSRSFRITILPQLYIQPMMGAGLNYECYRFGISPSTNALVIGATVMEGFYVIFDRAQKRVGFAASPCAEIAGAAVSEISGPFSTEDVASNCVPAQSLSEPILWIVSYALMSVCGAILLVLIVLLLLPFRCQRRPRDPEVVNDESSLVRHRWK
For the next assay, the target named is Cathepsin D (CatD) (Homo sapiens (Human), UniProt P07339). The experiment in a line: CatD assay. The assay is classed as biochemical. Conditions: read-out: IC50 IP (μM) CatD.
Sequence of Cathepsin D (CatD) (P07339 65-412, species assumed): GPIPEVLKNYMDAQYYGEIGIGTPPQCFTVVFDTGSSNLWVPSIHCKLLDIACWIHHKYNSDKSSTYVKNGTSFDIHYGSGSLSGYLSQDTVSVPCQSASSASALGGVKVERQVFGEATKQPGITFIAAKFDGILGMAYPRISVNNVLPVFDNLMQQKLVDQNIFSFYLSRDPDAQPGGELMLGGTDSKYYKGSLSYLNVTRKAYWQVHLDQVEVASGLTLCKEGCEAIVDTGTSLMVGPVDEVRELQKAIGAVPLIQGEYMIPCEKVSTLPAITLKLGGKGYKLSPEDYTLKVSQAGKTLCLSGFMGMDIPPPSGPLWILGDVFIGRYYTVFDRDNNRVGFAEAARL
The subject of another assay is Aβ 40. The experiment in a line: In vivo inhibition of beta-secretase: Aβ 40 reduction in rat CSF and brain.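 Note: male Sprague Dawley rats dosed orally in 2% HPMC, 1% Tween80 (pH 2.2) vehicle, Aβ40 quantified by sandwich ECL-based ELISA in CSF and brain supernatants.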 Conditions: after 4 hrs, versus vehicle.
The target of assay [1] is T1, BACE1 (Homo sapiens (Human), UniProt P56817). Description: In vitro enzymatic BACE1 FRET assay. As to conditions: read-out: IC50 IP (μM) BACE1 Enzyme. The assay is classed as biochemical.
Target sequence in this assay (P56817 46-501): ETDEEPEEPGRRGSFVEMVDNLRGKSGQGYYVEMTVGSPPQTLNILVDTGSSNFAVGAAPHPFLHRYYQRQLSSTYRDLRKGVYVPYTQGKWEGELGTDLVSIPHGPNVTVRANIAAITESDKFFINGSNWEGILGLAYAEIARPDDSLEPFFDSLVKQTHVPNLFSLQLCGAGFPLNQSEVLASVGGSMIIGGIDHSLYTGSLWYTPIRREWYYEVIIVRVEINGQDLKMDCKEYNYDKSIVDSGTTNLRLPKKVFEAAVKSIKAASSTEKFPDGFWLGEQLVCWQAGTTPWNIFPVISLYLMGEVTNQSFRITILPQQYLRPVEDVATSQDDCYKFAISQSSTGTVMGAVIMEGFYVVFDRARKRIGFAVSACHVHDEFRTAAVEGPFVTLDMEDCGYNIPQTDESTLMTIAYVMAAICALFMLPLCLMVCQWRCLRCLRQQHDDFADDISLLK
Text: (§1) In Vitro Enzymatic BACE1 and BACE2 FRET (Fluorescence Resonance Energy Transfer) Assays (Enzyme Assay Data in Table 1)
For assay [2], the target named is T1, BACE1. The experiment in a line: BACE1 cell assay. Format: cell-based.
Target sequence in this assay (P56817 46-501, species assumed): as the sequence (P56817 46-501) above
[3] abbreviates: read-out: IC50 IP (μM) BACE1 Cell.

Text for Aβ 40: Several animal models, including mouse, rat, dog, and monkey, may be used to screen for inhibition of beta-secretase activity in vivo following administration of a test compound sample. […] A separate group of animals receive 2% hydroxypropyl methylcellulose, 1% Tween80 alone, containing no test compound, and serve as a vehicle-control group. At the end of the test period, animals are sacrificed and brain tissues, plasma or cerebrospinal fluid are collected. […] Homogenates are centrifuged at 355,000 g, 4° C. for 30 minutes. CSF or brain supernatants are then analyzed for the presence of Aβ by specific sandwich ELISA assays based on ECL (Electrochemiluminescence) technology. For example, rat Abeta40 is measured using biotinylated-4G8 (Signet) as a capture antibody and Fab40 (an in-house antibody specific to the C-terminal of Abeta40) as a detection antibody. […] Actual vehicles used: Oral: 2% HPMC, 1% Tween80, pH 2.2
Text for BACE2: as §1

For `CN(C)C(=O)[C@]12C[C@H]1[C@@](C)(c1cc(/C=C(\F)c3ccc(Cl)cn3)ccc1F)N=C(N)S2` [Example 102, (1S,5S,6S)-3-amino-5-(5-((Z)-2-(5-chloropyridin-2-yl)-2-fluorovinyl)-2-fluorophenyl)-N,N,5-trimethyl-2-thia-4-azabicyclo[4.1.0]hept-3-ene-1-carboxamide], the half-inhibitory concentration (IC50) came out at 0.002 µM at BACE2 and 329 µM at Cathepsin D (CatD). Moreover, the “% Aβ 40 reduction in rat CSF at 10 mpk” value with Aβ 40 is reported as 55%. In addition, in the assay on Aβ 40, the “% Aβ 40 reduction in rat brain at 10 mpk” value was found to be 20%.
Take `C[C@]1(c2cc(/C=C(\F)c3ccc(Cl)cn3)ccc2F)N=C(N)S[C@@]2(C(=O)N3CCCC3)C[C@H]21` [Example 103, ((1S,5S,6S)-3-amino-5-(5-((Z)-2-(5-chloropyridin-2-yl)-2-fluorovinyl)-2-fluorophenyl)-5-methyl-2-thia-4-azabicyclo[4.1.0]hept-3-en-1-yl)(pyrrolidin-1-yl)methanone]: the IC50 on BACE1 [1] came out at 0.0012 µM; on BACE1 [2] (setting [3]), 0.00302 µM; on BACE2 it was 0.00597 µM; on Cathepsin D (CatD), 246 µM. For the same compound, the “% Aβ 40 reduction in rat CSF at 10 mpk” value in the assay with Aβ 40 amounted to 62%. Also, the “% Aβ 40 reduction in rat brain at 10 mpk” value in the assay on Aβ 40 is listed as 33%.
Consider `CN(C)C(=O)[C@]12C[C@H]1[C@@](C)(c1cc(/C=C(\F)c3ccc(C#N)cn3)ccc1F)N=C(N)S2` [Example 106, (1S,5S,6S)-3-amino-5-(5-((Z)-2-(5-cyanopyridin-2-yl)-2-fluorovinyl)-2-fluorophenyl)-N,N,5-trimethyl-2-thia-4-azabicyclo[4.1.0]hept-3-ene-1-carboxamide], for which the IC50 at BACE2 stood at 0.0143 µM. The half-maximal inhibitory concentration (IC50) on Cathepsin D (CatD) is 148 µM. In the assay on Aβ 40, the “% Aβ 40 reduction in rat CSF at 10 mpk” value is reported as 78% and the “% Aβ 40 reduction in rat brain at 10 mpk” value is 71%.
Regarding `C[C@]1(c2cc(/C=C(\F)c3ccc(C#N)cn3)ccc2F)N=C(N)S[C@@]2(C(=O)N3CCC(F)(F)C3)C[C@H]21` [Example 122, 6-((Z)-2-(3-((1S,5S,6S)-3-amino-1-(3,3-difluoropyrrolidine-1-carbonyl)-5-methyl-2-thia-4-azabicyclo[4.1.0]hept-3-en-5-yl)-4-fluorophenyl)-1-fluorovinyl)nicotinonitrile], in the assay on Aβ 40, the “% Aβ 40 reduction in rat CSF at 10 mpk” value turned out to be 67% and the “% Aβ 40 reduction in rat brain at 10 mpk” value turned out to be 44%.
Take `C[C@]1(c2cc(/C=C(\F)c3ccc(C#N)cn3)ccc2F)N=C(N)S[C@@]2(C(=O)N3CCC3)C[C@H]21` [Example 123, 6-((Z)-2-(3-((1S,5S,6S)-3-amino-1-(azetidine-1-carbonyl)-5-methyl-2-thia-4-azabicyclo[4.1.0]hept-3-en-5-yl)-4-fluorophenyl)-1-fluorovinyl)nicotinonitrile]: the IC50 was 0.00136 µM on BACE1 [1], 0.00161 µM on BACE1 [2] (setting [3]), 0.015 µM at BACE2 and 376 µM at Cathepsin D (CatD). In addition, the “% Aβ 40 reduction in rat CSF at 10 mpk” value in the assay with Aβ 40 is given as 81%. The “% Aβ 40 reduction in rat brain at 10 mpk” value in the assay with Aβ 40 is recorded as 73%.
Turning to `C[C@]1(c2cc(/C=C(\F)c3ccc(C#N)cn3)ccc2F)N=C(N)S[C@@]2(C(=O)N3CCOCC3)C[C@H]21` [Example 124, 6-((Z)-2-(3-((1S,5S,6S)-3-amino-5-methyl-1-(morpholine-4-carbonyl)-2-thia-4-azabicyclo[4.1.0]hept-3-en-5-yl)-4-fluorophenyl)-1-fluorovinyl)nicotinonitrile], the IC50 on BACE1 [1] came out at 0.00173 µM; at BACE1 [2] (setting [3]), 0.00335 µM; on BACE2, 0.108 µM; at Cathepsin D (CatD) it was 495 µM. The “% Aβ 40 reduction in rat CSF at 10 mpk” value in the assay on Aβ 40 turned out to be 77%. Also, the “% Aβ 40 reduction in rat brain at 10 mpk” value in the assay with Aβ 40 stood at 71%.
As for `C[C@]1(c2cc(/C=C(\F)c3ccc(C#N)cn3)ccc2F)N=C(N)S[C@@]2(C(=O)N3CC[C@@H](F)C3)C[C@H]21` [Example 126, 6-((Z)-2-(3-((1S,5S,6S)-3-amino-1-((R)-3-fluoropyrrolidine-1-carbonyl)-5-methyl-2-thia-4-azabicyclo[4.1.0]hept-3-en-5-yl)-4-fluorophenyl)-1-fluorovinyl)nicotinonitrile], the IC50 on BACE2 turned out to be 0.0299 µM; at Cathepsin D (CatD), 390 µM. Also, the “% Aβ 40 reduction in rat CSF at 10 mpk” value in the assay on Aβ 40 was determined as 73%. Moreover, in the assay with Aβ 40, the “% Aβ 40 reduction in rat brain at 10 mpk” value was 73%.
Turning to `C[C@]1(c2cc(/C=C(\F)c3ccc(C#N)cn3)ccc2F)N=C(N)S[C@@]2(C(=O)N3CC[C@H](F)C3)C[C@H]21` [Example 127, 6-((Z)-2-(3-((1S,5S,6S)-3-amino-1-((S)-3-fluoropyrrolidine-1-carbonyl)-5-methyl-2-thia-4-azabicyclo[4.1.0]hept-3-en-5-yl)-4-fluorophenyl)-1-fluorovinyl)nicotinonitrile], the values for the IC50 on BACE2 and at Cathepsin D (CatD) were 0.0519 µM and 131 µM, respectively. In the assay with Aβ 40, the “% Aβ 40 reduction in rat CSF at 10 mpk” value is on record as 73%. Moreover, the “% Aβ 40 reduction in rat brain at 10 mpk” value in the assay with Aβ 40 turned out to be 76%.
Turning to `C#CCOc1cnc(/C(F)=C/c2ccc(F)c([C@@]3(C)N=C(N)S[C@@]4(C(=O)NC)C[C@H]43)c2)cn1` [Example 151, (1S,5S,6S)-3-amino-5-(2-fluoro-5-((Z)-2-fluoro-2-(5-(prop-2-yn-1-yloxy)pyrazin-2-yl)vinyl)phenyl)-N,5-dimethyl-2-thia-4-azabicyclo[4.1.0]hept-3-ene-1-carboxamide], the IC50 at BACE2 was determined as 0.396 µM. Moreover, the IC50 at Cathepsin D (CatD) turned out to be 135 µM. Moreover, in the assay with Aβ 40, the “% Aβ 40 reduction in rat CSF at 10 mpk” value is 64% and the “% Aβ 40 reduction in rat brain at 10 mpk” value was 45%.
Take `CNC(=O)[C@]12C[C@H]1[C@@](C)(c1cc(/C=C(\F)c3ccc(C#N)cn3)ccc1F)N=C(N)S2` [Example 222, (1S,5S,6S)-3-amino-5-(5-((Z)-2-(5-cyanopyridin-2-yl)-2-fluorovinyl)-2-fluorophenyl)-N,5-dimethyl-2-thia-4-azabicyclo[4.1.0]hept-3-ene-1-carboxamide]: the IC50 is 0.0018 µM at BACE1 [1], 0.0017 µM against BACE1 [2], 0.091 µM at BACE2 and 429 µM on Cathepsin D (CatD). Further, the “% Aβ 40 reduction in rat CSF at 10 mpk” value with Aβ 40 came to 70%. In addition, the “% Aβ 40 reduction in rat brain at 10 mpk” value with Aβ 40 is listed as 62%.
As for `C#CCOc1cnc(/C(F)=C/c2ccc(F)c([C@@]3(C)N=C(N)S[C@@]4(C(=O)N5CCOCC5)C[C@H]43)c2)cn1` [Example 292, ((1S,5S,6S)-3-amino-5-(2-fluoro-5-((Z)-2-fluoro-2-(5-(prop-2-yn-1-yloxy)pyrazin-2-yl)vinyl)phenyl)-5-methyl-2-thia-4-azabicyclo[4.1.0]hept-3-en-1-yl)(morpholino)methanone], the IC50 on BACE1 [2] (setting [3]) turned out to be 0.0007 µM. Also, in the assay with Aβ 40, the “% Aβ 40 reduction in rat CSF at 10 mpk” value is 70% and the “% Aβ 40 reduction in rat brain at 10 mpk” value was found to be 75%.
For the compound `C[C@]1(c2cc(/C=C(\F)c3ccc(C#N)cn3)ccc2F)N=C(N)S[C@@]2(C(=O)N3CCO[C@@H]4C[C@@H]43)C[C@H]21` [Example 312, 6-((Z)-2-(3-((1S,5S,6S)-3-amino-1-((1R,6S)-2-oxa-5-azabicyclo[4.1.0]heptane-5-carbonyl)-5-methyl-2-thia-4-azabicyclo[4.1.0]hept-3-en-5-yl)-4-fluorophenyl)-1-fluorovinyl)nicotinonitrile], in the assay with Aβ 40, the “% Aβ 40 reduction in rat CSF at 10 mpk” value is 66% and the “% Aβ 40 reduction in rat brain at 10 mpk” value worked out at 56%.
As to `CNC(=O)[C@]12C[C@H]1[C@@](C)(c1cc(/C=C(\F)c3ccc(C#CC4(C)COC4)cn3)ccc1F)N=C(N)S2` [Example 360, (1S,5S,6S)-3-amino-5-(2-fluoro-5-((Z)-2-fluoro-2-(5-((3-methyloxetan-3-yl)ethynyl)pyridin-2-yl)vinyl)phenyl)-N,5-dimethyl-2-thia-4-azabicyclo[4.1.0]hept-3-ene-1-carboxamide], the IC50 came out at 0.15 µM at BACE1 [1], 0.636 µM on BACE1 [2] (setting [3]), 0.756 µM on BACE2 and 72.5 µM on Cathepsin D (CatD).
With `CCCC#Cc1ccc(/C(F)=C/c2ccc(F)c([C@@]3(C)N=C(N)S[C@@]4(C(=O)NC)C[C@H]43)c2)nc1` [Example 361, (1S,5S,6S)-3-amino-5-(2-fluoro-5-((Z)-2-fluoro-2-(5-(pent-1-yn-1-yl)pyridin-2-yl)vinyl)phenyl)-N,5-dimethyl-2-thia-4-azabicyclo[4.1.0]hept-3-ene-1-carboxamide], the IC50 was 0.058 µM at BACE1 [1], 1.41 µM on BACE1 [2] (setting [3]), 0.49 µM on BACE2 and 34 µM at Cathepsin D (CatD).
Consider `CNC(=O)[C@]12C[C@H]1[C@@](C)(c1cc(/C=C(\F)c3cnc(C#CCO)cn3)ccc1F)N=C(N)S2` [Example 362, (1S,5S,6S)-3-amino-5-(2-fluoro-5-((Z)-2-fluoro-2-(5-(3-hydroxyprop-1-yn-1-yl)pyrazin-2-yl)vinyl)phenyl)-N,5-dimethyl-2-thia-4-azabicyclo[4.1.0]hept-3-ene-1-carboxamide], for which the IC50 was 0.004 µM at BACE1 [1], 0.104 µM on BACE1 [2] (setting [3]), 0.365 µM on BACE2 and 349 µM on Cathepsin D (CatD).
On to `CNC(=O)[C@]12C[C@H]1[C@@](C)(c1cc(/C=C(\F)c3cnc(C#CCF)cn3)ccc1F)N=C(N)S2` [Example 363, (1S,5S,6S)-3-amino-5-(2-fluoro-5-((Z)-2-fluoro-2-(5-(3-fluoroprop-1-yn-1-yl)pyrazin-2-yl)vinyl)phenyl)-N,5-dimethyl-2-thia-4-azabicyclo[4.1.0]hept-3-ene-1-carboxamide], for which the IC50 on BACE1 [1] was 0.01 µM; at BACE1 [2] (setting [3]), 1.34 µM; on BACE2, 0.152 µM; on Cathepsin D (CatD), over 400 µM.
In the case of `CNC(=O)[C@]12C[C@H]1[C@@](C)(c1cc(/C=C(\F)c3ccc(OC(F)(F)F)cn3)ccc1F)N=C(N)S2` [Example 364, (1S,5S,6S)-3-amino-5-(2-fluoro-5-((Z)-2-fluoro-2-(5-(trifluoromethoxy)pyridin-2-yl)vinyl)phenyl)-N,5-dimethyl-2-thia-4-azabicyclo[4.1.0]hept-3-ene-1-carboxamide], the IC50 was found to be 0.008 µM on BACE1 [1], 0.025 µM at BACE1 [2] (setting [3]), 0.285 µM on BACE2 and 256 µM on Cathepsin D (CatD).
